Values quoted from earlier work in patent US6339063B1, “9a-azalides as veterinary antimicrobial agents” (Merck & Co., Inc., priority 1997, dated 2002).

System: Pasteurella multocida
Settings: as said in U.S. Pat. Nos. 4,474,768, 4,464,527 and 4,526,889

SMILES	activity against Pasteurella multocida in vitro
CCC1OC(=O)C(C)C(OC2CC(C)(OC)C(O)C(C)O2)C(C)C(OC2OC(C)CC(N(C)C)C2O)C(C)(O)CC(C)CN(C)C(C)C(O)C1(C)O (stereo not drawn) [4″-epi-azithromycin]	active
CC[C@H]1OC(=O)[C@H](C)[C@@H](O[C@H]2C[C@@](C)(OC)[C@@H](O)[C@H](C)O2)[C@H](C)[C@@H](O[C@@H]2O[C@H](C)C[C@H](N(C)C)[C@H]2O)[C@](C)(O)C[C@@H](C)CN(C)[C@H](C)[C@@H](O)[C@]1(C)O [azithromycin, 9-deoxo-9a-aza-9a-methyl-9a-homoerythromycin A]	active
